{"source": "patent US9212196B2", "about": "“Hypophosphorous acid derivatives having antihyperalgic activity and biological applications thereof” (UNIVERSITE PARIS DESCARTES, priority 2011, dated 2015)", "system": "CCI neuropathic pain model", "experiment": "Paw pressure test in CCI neuropathic pain model in rats", "format": "in vivo, rat", "experimental": "After the induction period of the neuropathy or inflammation, various amounts of derivative 2 dissolved in serum have been injected in rats, (from 0.5 to 15 μg/rat, i.t. from 1 to 30 mg/kg, i.p.) on time-course of vocalization threshold to paw pressure. The results obtained on healthy animals are given on FIG. 1. They are expressed by the time course curves of means+/-SEM of vocalization threshold in grams (n=6-8 rats per group) (A) or by the area under the curve (B). Morphine (10 μg/rat, i.t.) is used as a positive control. […] FIG. 4 illustrates the effect of intrathecal administration of derivative 2 on the vocalization threshold to paw pressure in the CCI neuropathic pain model (effect of derivative 2 (1, 5, 10 μg/rat, i.t.) on time-course of vocalization threshold to paw pressure). Gabapentin (100 mg/kg, p.o.) is used as a positive control. […] The effect of intrathecal administration of derivative 2 (10 μg/rat, i.t.) on the vocalization threshold to paw pressure in the CCI neuropathic pain model after mGluR4 or mismatch ODN treatment is illustrated by FIG. 4. […] The animals were submitted to the paw pressure test previously described by Randall and Selitto (1957). Nociceptive thresholds, expressed in grams (g), were measured with a Ugo Basile analgesimeter (Apelex, tip diameter of the probe: 1 mm, weight: 30 g) by applying an increasing pressure to the right hind paw of rats until a squeak (vocalization threshold) was obtained (cut-off was 750 g except carrageenan treated animals for which the cut-off was 500 g). The treatments were done after the measurement of two consecutive stable vocalization threshold values and their effects were assessed 15, 30, 45, 60, 90, and 120 min after. Unilateral peripheral mononeuropathy was induced according to the method described by Bennett and Xie (1988). Briefly, after determining vocalization thresholds, rats were anesthetized with sodium pentobarbital (50 mg/kg i.p.) and four chromic gut (5-0) ligatures were tied loosely (with about 1-mm spacing) around the right common sciatic nerve. The nerve was constricted to a barely discernible degree, so that circulation through the epineurial vasculature was not interrupted. Only animals presenting a decrease ≧15% of the presurgery value of vocalization threshold were selected, i.e., 90% of ligated animals (presurgery value: 379±7 g, pre-drug value: 188±7 g). Intrathecal injections were performed, under isoflurane anesthesia (4% induction, 2% maintenance), as previously described (Mestre et al., 1994). Briefly, the anesthetized rat was held in one hand by the pelvic girdle and a 25-gauge X1-inch needle connected to a 25 μL Hamilton syringe was inserted into the subarachnoidal space between lumbar vertebrae L5 and L6, until a tail flick was elicited. The syringe was held in position for few seconds after the injection of a volume of 10 μL/rat. AS ODN was designed based on rat mGluR4 sequence in regions lacking known splice variants. […]. One ODN with scramble arrangement in the base composition compared to the 18-mer specific as was used as control for sequence-independent effects of ODN treatments. […] Pain scores were determined using standard methods in strict conformity with ethical standards (Zimmermann M., 1983) before ODN treatments and then on day 4 in the afternoon. […]"}
{"compound": "N[C@@H](CCP(=O)(O)C(O)c1ccc(OCC(=O)O)cc1)C(=O)O", "note": "(stereo partly drawn) [Derivative 2, [((3S)-3-Amino-3-carboxy)propyl][(4-(carboxymethoxy)phenyl)hydroxymethyl]phosphinic Acid]", "values": [{"measurement": "antihyperalgesic effect on vocalization threshold to paw pressure", "setting": "CCI neuropathic pain, rats, 1-10 μg/rat i.t.", "result": "abolishes the excess of mechanical pain"}, {"measurement": "antihyperalgesic effect after antisense oligonucleotides against mGlu4", "setting": "CCI neuropathic rats, 10 μg/rat i.t., versus saline or mismatch ODN", "result": "significantly reduced"}, {"measurement": "mechanical antihyperalgesia after knockdown of spinal mGlu4 expression by antisense oligonucleotides", "setting": "FIG. 7 legend, model not named", "result": "reduces mechanical antihyperalgesia"}, {"measurement": "antihyperalgesic effect compared to gabapentine", "setting": "neuropathy model, gabapentine 100 mg/kg per os as control", "result": "significantly higher than the one of gabapentine"}]}
